Results on 17 compounds are retold here after patent US11639350B2, “Heteroaryldihydropyrimidine derivatives and methods of treating hepatitis B infections” (Janssen Pharmaceutica NV, priority 2018, dated 2023).

A short description of data set [1]: Cytotoxicity determination in HepG2.2.15 cells (CCK-8). The data set is classed as cell-based. Conditions: human, 6 days of compound treatment, CCK-8, highest concentration 100 μM. As for the experimental part:
(§1) HBV replication inhibition by the compounds of this invention as well as cytotoxicity determination was determined in cells infected or transfected with HBV, or cells with stably integrated HBV, such as HepG2.2.15 cells (Sells et al. 1987). The method used herein is as follows.
(§2) The HepG2.2.15 cells were seeded into 96-well plate in 2% FBS (Fetal bovine serum) culture medium at the density of 40,000 cells/well and 5,000 cells/well for HBV inhibitory activity and cytotoxicity determination, respectively. After seeding, the cell plates were incubated at 37° C., 5% CO2 overnight. The next day, medium containing compounds were added to treat the cells for 6 days with medium refreshed once in the middle of the treatment. Eight dose points with 3 folds dilution of each compound were adopted and the highest concentration of the compounds was 10 μM and 100 μM for HBV inhibitory activity and cytotoxicity determination, respectively.
After 6 days of compounds treatment, 20 μl CCK-8 (Cell Counting Kit-8 (Tianjin Biolite company)) reagents were added to each well of cytotoxicity assay plates, the plate was incubated at 37° C., 5% CO2 for 2.5 hours and the absorbance at 450 nm wavelength was measured, at the same time the absorbance at 630 nm wavelength was read as reference.
(§3) EC50 and CC50 values are calculated by the GraphPad Prism software and are averages where multiple measurements were made. EC50 values for the other exemplified compounds were either not measured or higher than 1 μM.

Another data set relates to HBV. As to the kind of experiment: HBV inhibitory activity: HBV DNA in the culture medium of HepG2.2.15 cells by q-PCR. The class given is cell-based. As to conditions: HepG2.2.15 cells, 6 days of compound treatment, HBV DNA in culture medium by q-PCR, highest concentration 10 μM, read-out: EC50. As for the experimental part: as §1, §2
The HBV DAN change in the cell culture medium induced by the compounds was measured by q-PCR (quantitative polymerase chain reaction) method. The HBV DNA in the culture medium was extracted using QIAamp 96 DNA Blood Kit according to the manual and then quantified by q-PCR using the primers and probe in the table below: […]
as §3

[2] abbreviates: Hepatitis B virus, HepG2.2.15, 144 h.

Read-outs that look alike come from different tables or passages of the source.

In the case of `COC(=O)C1=C([C@H]2CC[C@H](C(=O)O)CC2)NC(c2nccs2)=NC1c1ccc(F)cc1Cl` (single isomer, unassigned) [Compound 19, trans-4-(6-(2-Chloro-4-fluorophenyl)-5-(methoxycarbonyl)-2-(thiazol-2-yl)-3,6-dihydropyrimidin-4-yl)cyclohexanecarboxylic Acid], half-maximal cytotoxicity in data set [1] (CC50 at 6 days) was put at 8.7 µM. Moreover, the concentration for a half-maximal effect (EC50) with HBV (setting [2]) is 62 nM.
For `COC(=O)C1=C(C2CN(S(C)(=O)=O)C2)NC(c2nccs2)=NC1c1ccc(F)cc1Cl` (single isomer, unassigned) [Compound 84A, 4-(2-Chloro-4-fluoro-phenyl)-6-(1-methanesulfonyl-azetidin-3-yl)-2-thiazol-2-yl-1,4-dihydro-pyrimidine-5-carboxylic Acid Methyl Ester], in that order: 29 µM and 118 nM.
Regarding `CCOC(=O)C1=C(C2CCN(S(=O)(=O)[C@H]3C[C@H](C(=O)O)C3)CC2)NC(c2nccs2)=NC1c1ccccc1Cl` (stereo partly drawn) [Compound 146, (trans)-3-((4-(6-(2-chlorophenyl)-5-(ethoxycarbonyl)-2-(thiazol-2-yl)-3,6-dihydropyrimidin-4-yl)piperidin-1-yl)sulfonyl)cyclobutane-1-carboxylic Acid], the CC50 at 6 days in data set [1] is 42.1 µM. Moreover, in the data set on HBV (setting [2]), the concentration giving a half-maximal response (EC50) stood at 68 nM.
For `COC(=O)C1=C([C@H]2CC[C@@H](N(CC(=O)O)S(C)(=O)=O)CC2)NC(c2nccs2)=NC1c1ccc(F)cc1Cl` (relative stereo) [Compound 135, 2-(N-(cis-4-(6-(2-chloro-4-fluorophenyl)-5-(methoxycarbonyl)-2-(thiazol-2-yl)-3,6-dihydropyrimidin-4-yl)cyclohexyl)methylsulfonamido)acetic Acid], in that order: 62.5 µM and 346 nM.
For `COC(=O)C1=C(C2CCN(C(=O)CO)CC2)NC(c2nccs2)=NC1c1ccc(F)cc1Cl` (stereo not shown) [Compound 122, Methyl 4-(2-chloro-4-fluorophenyl)-6-(1-(2-hydroxyacetyl)-piperidin-4-yl)-2-(thiazol-2-yl)-1,4-dihydropyrimidine-5-carboxylate], in that order: 5.1 µM and 394 nM.
With `COC(=O)C1=C([C@H]2C[C@H](NC(C)=O)C2)NC(c2nccs2)=NC1c1ccc(F)cc1Cl` (single isomer, unassigned) [Compound 89R, trans-Methyl 6-(3-acetamidocyclobutyl)-4-(2-chloro-4-fluoro-phenyl)-2-(thiazol-2-yl)-1,4-dihydropyrimidine-5-carboxylate], in data set [1], the half-maximal cytotoxic concentration (CC50) at 6 days came out at 17.2 µM. In addition, the EC50 in the data set with HBV (setting [2]) was found to be 112 nM.
For `CNS(=O)(=O)[C@H]1CC[C@H](C2=C(C(=O)OC)C(c3cccc(F)c3Cl)N=C(c3nccs3)N2)CC1` (single isomer, unassigned) [Compound 259E, (trans)-methyl 4-(2-chloro-3-fluorophenyl)-6-(4-(N-methylsulfamoyl)cyclohexyl)-2-(thiazol-2-yl)-1,4-dihydropyrimidine-5-carboxylate], in that order: 22.7 µM and 28 nM.
For `COC(=O)C1=C(C2CCN(S(=O)(=O)[C@H]3CC[C@H](C(=O)O)C3)CC2)NC(c2nccs2)=NC1c1ccc(F)cc1Cl` (relative stereo) [Compound 311A, (trans)-3-((4-(6-(2-Chloro-4-fluorophenyl)-5-(methoxycarbonyl)-2-(thiazol-2-yl)-3,6-dihydropyrimidin-4-yl)piperidin-1-yl)sulfonyl)-cyclopentanecarboxylic Acid], in that order: over 100 µM and 89 nM.
For `CNS(=O)(=O)[C@H]1CC[C@H](C2=C(C(=O)OC)C(c3ccc(F)c(F)c3Cl)N=C(c3c(F)cc(F)cc3F)N2)CC1` (single isomer, unassigned) [Compound 167A, methyl 4-(2-chloro-3,4-difluorophenyl)-6-((trans)-4-(N-methylsulfamoyl)cyclohexyl)-2-(2,4,6-trifluorophenyl)-1,4-dihydropyrimidine-5-carboxylate], in that order: 11.6 µM and 34 nM.
`COC(=O)C1=C(C2CCOCC2)NC(c2nccs2)=NC1c1ccc(F)cc1Cl` (stereo not shown) [Compound 51, Methyl 4-(2-chloro-4-fluorophenyl)-6-(tetrahydro-2H-pyran-4-yl)-2-(thiazol-2-yl)-1,4-dihydropyrimidine-5-carboxylate]: the half-maximal cytotoxic concentration (CC50) at 6 days in data set [1] turned out to be 9.9 µM. In addition, the EC50 with HBV (setting [2]) worked out at 112 nM.
For `COC(=O)CCS(=O)(=O)N1CCC(C2=C(C(=O)OC)C(c3ccc(F)c(F)c3Cl)N=C(c3nccs3)N2)CC1` (stereo not shown) [Compound 157A, Methyl 4-(2-chloro-3,4-difluorophenyl)-6-(1-((3-methoxy-3-oxopropyl)sulfonyl)piperidin-4-yl)-2-(thiazol-2-yl)-1,4-dihydropyrimidine-5-carboxylate], in that order: 80 µM and 85 nM.
For `CCOC(=O)C1=C(C2CCN(S(=O)(=O)C3CC(CC(=O)O)C3)CC2)NC(c2nccs2)=NC1c1ccc(F)c(F)c1Cl` (stereo not shown) [Compound 482A, 2-(3-((4-(6-(2-Chloro-3,4-difluorophenyl)-5-(ethoxycarbonyl)-2-(thiazol-2-yl)-3,6-dihydropyrimidin-4-yl)piperidin-1-yl)sulfonyl)cyclobutyl)acetic Acid], in that order: 15.3 µM and 6 nM.
For `COC(=O)C1=C(C2CCN(S(=O)(=O)C3CC(C)(C(=O)O)C3)CC2)NC(c2nccs2)=NC1c1ccc(F)cc1Cl` (stereo not drawn) [Compound 141, (trans)-3-((4-(6-(2-chloro-4-fluorophenyl)-5-(methoxycarbonyl)-2-(thiazol-2-yl)-3,6-dihydropyrimidin-4-yl)piperidin-1-yl)sulfonyl)-1-methylcyclobutane-1-carboxylic Acid], in that order: 30.7 µM and 51 nM.
On to `CCOC(=O)C1=C(C2CCN(S(=O)(=O)[C@H]3C[C@@H](C(=O)O)C3)CC2)NC(c2nccs2)=NC1c1cccc(F)c1Br` (relative stereo) [Compound 339D, (cis)-3-((4-(6-(2-Bromo-3-fluorophenyl)-5-(ethoxycarbonyl)-2-(thiazol-2-yl)-3,6-dihydropyrimidin-4-yl)piperidin-1-yl)sulfonyl)cyclobutanecarboxylic Acid], for which, in data set [1], the half-maximal cytotoxic concentration (CC50) at 6 days was 32.7 µM. In addition, the EC50 in the data set on HBV (setting [2]) was 99 nM.
In turn, `COC(=O)C1=C(C2CCN(S(C)(=O)=O)CC2)NC(c2nccs2)=NC1c1ccc(F)cc1Br` (single isomer, unassigned) [Compound 120A, Methyl 4-(2-bromo-4-fluorophenyl)-6-(1-(methylsulfonyl)-piperidin-4-yl)-2-(thiazol-2-yl)-1,4-dihydropyrimidine-5-carboxylate] had a CC50 at 6 days in data set [1] of 31.7 µM. Also, the EC50 with HBV came out at 350 nM.
`COCCNS(=O)(=O)N1CCC(C2=C(C(=O)OC)C(c3ccc(F)cc3Cl)N=C(c3nccs3)N2)CC1` (single isomer, unassigned) [Compound 268B, Methyl 4-(2-chloro-4-fluorophenyl)-6-(1-(N-(2-methoxyethyl)-sulfamoyl)piperidin-4-yl)-2-(thiazol-2-yl)-1,4-dihydropyrimidine-5-carboxylate] showed a CC50 at 6 days in data set [1] of 30.7 µM. Also, the half-maximal effective concentration (EC50) with HBV (setting [2]) came out at 59 nM.
For `COC[C@H](O)CN([C@H]1CC[C@H](C2=C(C(=O)OC)C(c3ccc(F)c(F)c3Cl)N=C(c3nccs3)N2)CC1)S(C)(=O)=O` (single isomer, unassigned) [Compound 245B], in that order: 12.3 µM and 49 nM.
